From patent US8324216B2, “Substituted piperazines” (Chemocentryx, Inc., priority 2002, dated 2012)

Assays:
[1] = system: arthritis induced clinical ankle swelling; assay: Rat model of collagen induced arthritis (17 day developing type II collagen arthritis); format: in vivo, female Lewis rats; conditions: 25 mg/kg sub-cutaneous daily day 0 till day 17
Method: A 17 day developing type II collagen arthritis study was conducted to evaluate the effects of compound 1.028 on arthritis induced clinical ankle swelling. Rat collagen arthritis is an experimental model of polyarthritis that has been widely used for preclinical testing of numerous anti-arthritic agents (see Trentham, et al., J. Exp. Med. 146(3):857-868 (1977), Bendele, et al., Toxicologic Pathol. 27:134-142 (1999), Bendele, et al., Arthritis Rheum. 42:498-506 (1999)). The hallmarks of this model are reliable onset and progression of robust, easily measurable polyarticular inflammation, marked cartilage destruction in association with pannus formation and mild to moderate bone resorption and periosteal bone proliferation. Female Lewis rats (approximately 0.2 kilograms) were anesthetized with isoflurane and injected with Freund's Incomplete Adjuvant containing 2 mg/mL bovine type II collagen at the base of the tail and two sites on the back on days 0 and 6 of this 17 day study. Compound 1.028 was dosed daily in a sub-cutaneous manner from day 0 till day 17 at a dose of 25 mg/kg and a volume of 1 mL/kg in the following vehicle (20% N,N-dimethylacetamide, 75% corn oil, 5% Tween-80). Caliper measurements of the ankle joint diameter were taken, and reducing joint swelling was taken as a measure of efficacy.

[2] = system: LPS induced synovial inflammation in rabbit knee; assay: Rabbit model of destructive joint inflammation (intra-articular LPS); format: in vivo, female New Zealand rabbits; conditions: for synovium inflammation score: 16 h, score 1 minimal, 2 mild, 3 moderate, 4 moderate-marked, vehicle 3
Excerpt: This study design mimics the destructive joint inflammation seen in arthritis. Intra-articular injection of LPS causes an acute inflammatory response characterized by the release of cytokines and chemokines, many of which have been identified in rheumatoid arthritic joints. Marked increases in leukocytes occur in synovial fluid and in synovium in response to elevation of these chemotactic mediators. Selective antagonists of chemokine receptors have shown efficacy in this model (see Podolin, et al., J. Immunol. 169(11):6435-6444 (2002)).
Sixteen hours after the LPS injection, knees were lavaged and cells counts performed. Beneficial effects of treatment were determined by histopathologic evaluation of synovial inflammation. The following inflammation scores were used for the histopathologic evaluation: 1—minimal, 2—mild, 3—moderate, 4—moderate-marked.

SMILES | Inhibition of arthritis induced ankle swelling [1] | change in joint diameter day9-day17 ([1]; vehicle 15.7% +/− 2.0%, normal 0% +/− 0.3%) | synovium inflammation score ([2]; dose 1=50 μM intra-articular with LPS 10 ng) | synovium inflammation score ([2]; dose 2=100 μM intra-articular with LPS 10 ng) | Inhibition of the inflammatory response ([2]; rabbit LPS intra-articular model)
COc1cc(N2CCN(C(=O)Cn3nc(C(F)(F)F)c(Cl)c3C)CC2)c(Cl)cc1Cl [Compound 1.028] | significantly and specifically inhibit the arthritis induced ankle swelling | 9.1% +/− 1.8% |  |  | 
Cc1c(Cl)c(C(F)(F)F)nn1CC(=O)N1CCN(c2ccc(F)cc2)CC1 [CCX-105] |  |  | 2 | 1 | significantly and specifically inhibit the inflammatory response
